Assay results: patent US20080300258A1, “ANHYDROUS CIPROFLOXACIN HYDROCHLORIDE” (priority 2007, published 2008)

Settings: eight weeks of storage at 40 degrees C., relative humidity 75%

**Q.** For `O=C(O)c1cn(C2CC2)c2cc(N3CCNCC3)c(F)cc2c1=O` [1-cyclopropyl-6-fluoro-1,4-dihydro-4-oxo-7-(1-piperazinyl)-3-quinolinecarboxylic acid], which decomposition on storage is on record?
**A.** Its decomposition on storage is “no significant decomposition was observed”.

**Q.** And the “water intake on storage” value?
**A.** Its value is “No water intake was observed”.
